62 compounds from patent publication US11091421B2, “Benzene fused heterocyclic derivative and pharmaceutical composition comprising the same” (TAIWANJ PHARMACEUTICALS CO., LTD., priority 2017, dated 2021) can be followed below.

Where only a bound is given, the exact number is not on record here.

The target in the first assay is autotaxin (Homo sapiens, UniProt Q13822). Put plainly: Autotaxin inhibitor screening assay (phosphodiesterase activity, p-nitrophenol cleaved from bis-(p-nitrophenyl) phosphate, absorbance 410 nm). Format: biochemical. Conditions: compound at 30 μM; BNPP 3 mM, pH 9.0, 37° C., 30 minutes. Here is the method: As described above, the compounds in the present disclosure have the effect of inhibiting the activity of autotaxin, and can be used as autotaxin inhibitors. One method for inhibiting activity of autotaxin in environment is administering to the environment an effective amount of the compound of Formula (I). Please refer to the following experiment, the phosphodiesterase activity of autotaxin was measured using the p-nitrophenol that is a yellow product cleaved by autotaxin from the bis-(p-nitrophenyl) phosphate. Compound samples (10 μl) were incubated with autotaxin (10 μl) in a final volume of 200 μl assay buffer (5 mM CaCl2, 50 mM Tris-HCl, pH 9.0) containing bis-(p-nitrophenyl) phosphate (BNPP) at a final concentration of 3 mM at 37° C. After 30 minutes, absorbance at 410 nm of the reacted solution was measured. The percent inhibition for each test article (TA) (compound) was determined using the following equation. % Inhibition=(O.D.vehicle−O.D.TA)/O.D.vehicle×100
On to `O=C1c2cc(O)ccc2CC1CC1CCN(C(=O)OCc2cc(Cl)cc(Cl)c2)CC1` (centres unmarked) [Compound 119], for which the Inhibition result is “B (50%~80% inhibition at 30 μM)”.

The assay is the same for the next values; noted with them: pH 9.
Compound `O=C(Nc1ccc2c(c1)CC(Cc1ccc(C(=O)O)cc1)C2)OCc1ccccc1` (centres unmarked) [Compound 110] registered an inhibition at 30 µM of 50 to 80%.

Staying with this assay, now noted: pH 9, compound at 30 μM; BNPP 3 mM, pH 9.0, 37° C., 30 minutes; read-out: Inhibition.
As for `O=C(O)c1ccc(CC2CCc3c(OCc4cc(F)c(F)cc4F)cccc3C2=O)cc1` (centres unmarked) [Compound 47], the inhibition at 30 µM was in the range of 50 to 80%.

For `O=C(O)c1ccc(COc2ccc3c(c2)CC(Cc2cc(Cl)cc(Cl)c2)C3=O)cc1` (centres unmarked) [Compound 134], the inhibition at 30 µM is > 80%.

As to `O=C(O)Cc1ccc(COc2ccc3c(c2)C/C(=C\c2cc(Cl)cc(Cl)c2)C3=O)cc1` [Compound 130], the inhibition at 30 µM is > 80%.

In the case of `O=C1/C(=C/c2cccc(C(F)(F)F)c2)Cc2ccc(OCc3ccc(F)c(F)c3)cc21` [Compound 7], the inhibition at 30 µM was 50 to 80%.

For `O=C(Nc1ccc2c(c1)C/C(=C\c1ccc(C(F)(F)F)cc1)C2=O)OCc1ccccc1` [Compound 27], the inhibition at 30 µM was < 50%.

With `O=C1c2ccc(O)cc2CCC1Cc1ccc(OCCOc2ccc(F)cc2F)cc1` (centres unmarked) [Compound 102], the inhibition at 30 µM is 50 to 80%.

Consider `O=C(Nc1ccc2c(c1)C/C(=C\c1ccc(C(=O)O)cc1)C2=O)OCc1ccccc1` [Compound 28], for which the inhibition at 30 µM is < 50%.

For the compound `O=C(O)c1ccc(COc2ccc3c(c2)C/C(=C\c2ccc(OCc4cc(F)c(F)cc4F)cc2)C3=O)cc1` [Compound 14], the inhibition at 30 µM is > 80%.

On to `O=C(O)c1ccc(COc2ccc3c(c2)C/C(=C\CCc2cc(Cl)cc(Cl)c2)C3=O)cc1` [Compound 17], for which the inhibition at 30 µM was > 80%.

Regarding `O=C(NCc1cc(F)ccc1F)c1ccc(/C=C2\Cc3cc(O)ccc3C2=O)cc1` [Compound 33], the inhibition at 30 µM was 50 to 80%.

As for `CS(=O)(=O)c1ccc(COc2ccc3c(c2)C/C(=C\c2ccc(F)c(Cl)c2)C3=O)cc1` [Compound 126], the inhibition at 30 µM is < 50%.

In the case of `O=C(CCc1ccc(CC2CCc3cc(O)ccc3C2=O)cc1)c1ccc(F)c(F)c1` (centres unmarked) [Compound 81], the inhibition at 30 µM lay within 50 to 80%.

On to `O=C(O)c1ccc(CN2CCc3cc(OCc4cc(F)c(F)cc4F)ccc3C2=O)cc1` [Compound 77], for which the inhibition at 30 µM lay in the range of 50 to 80%.

Consider `O=C(NCCO)c1ccc(CC2CCc3cc(OCc4cc(F)c(F)cc4F)ccc3C2=O)cc1` (centres unmarked) [Compound 45], for which the inhibition at 30 µM was in the range of 50 to 80%.

With `CS(=O)(=O)c1ccc(COc2ccc3c(c2)C/C(=C\c2cc(Cl)cc(Cl)c2)C3=O)cc1` [Compound 122], the inhibition at 30 µM is < 50%.

With `O=C(NCCc1ccc(Cl)c(Cl)c1)c1ccc(CC2CCc3cc(O)ccc3C2=O)cc1` (centres unmarked) [Compound 60], the inhibition at 30 µM was in the range of 50 to 80%.

Take `O=C(O)c1ccc(/C=C2\Cc3cccc(OCc4cc(F)c(F)cc4F)c3C2=O)cc1` [Compound 11]: the inhibition at 30 µM was 50 to 80%.

As to `O=C(O)c1ccc(COc2ccc3c(c2)C/C(=C\c2ccc(-c4ccc(F)cc4)cc2)C3=O)cc1` [Compound 12], the inhibition at 30 µM was > 80%.

In the case of `O=C(O)c1ccc(COc2ccc3c(c2)C/C(=C\c2ccc(OCCOc4ccc(F)cc4F)cc2)C3=O)cc1` [Compound 16], the inhibition at 30 µM lay within 50 to 80%.

`O=C(O)c1ccc(/C=C2\Cc3cc(OCc4cc(F)c(F)cc4F)ccc3C2=O)cc1` [Compound 10]: the inhibition at 30 µM is < 50%.

On to `O=C1c2ccc(OCCc3cc(F)ccc3F)cc2CCC1Cc1ccc(O)c(O)c1` (centres unmarked) [Compound 53], for which the inhibition at 30 µM is > 80%.

Take `O=C(O)c1ccc(/C=C2\Cc3ccc(OCc4ccc(F)c(F)c4)cc3C2=O)cc1` [Compound 8]: the inhibition at 30 µM was < 50%.

In the case of `O=C(OCc1cc(F)c(F)cc1F)c1ccc(CC2CCc3cc(O)ccc3C2=O)cc1` (centres unmarked) [Compound 57], the inhibition at 30 µM is > 80%.

Take `O=C(OCc1ccc(F)c(F)c1)c1ccc(CC2CCc3cc(OCc4ccc(F)c(F)c4)ccc3C2=O)cc1` (centres unmarked) [Compound 58]: the inhibition at 30 µM is > 80%.

As to `COC(=O)c1ccc(COc2ccc3c(c2)C/C(=C\c2ccc(Cl)c(F)c2)C3=O)cc1` [Compound 88], the inhibition at 30 µM was > 80%.

In the case of `O=C(O)c1ccc(/C=C2\CCc3cc(OCCc4ccc(F)cc4)ccc3C2=O)cc1` [Compound 50], the inhibition at 30 µM was 50 to 80%.

For `CS(=O)(=O)Cc1ccc(COc2ccc3c(c2)C/C(=C\c2cc(Cl)cc(Cl)c2)C3=O)cc1` [Compound 124], the inhibition at 30 µM is < 50%.

For the compound `O=C(O)c1cccc(/C=C2\Cc3ccc(OCc4ccc(F)c(F)c4)cc3C2=O)c1` [Compound 9], the inhibition at 30 µM was < 50%.

Take `O=C1c2ccc(O)cc2CCC1CN1CCN(C(=O)OCc2cc(Cl)cc(Cl)c2)CC1` (centres unmarked) [Compound 85]: the inhibition at 30 µM was > 80%.

For the compound `O=C(O)c1ccc(COc2ccc3c(c2)C/C(=C\c2cc(F)c(F)c(F)c2)C3=O)cc1` [Compound 18], the inhibition at 30 µM lay within 50 to 80%.

Take `O=C(O)c1ccc(CC2CCc3cc(OCCc4ccc(F)cc4)ccc3C2=O)cc1` (centres unmarked) [Compound 51]: the inhibition at 30 µM was > 80%.

For the compound `O=C1c2cc(O)ccc2CC1CC1CCN(C(=O)OCc2cc(Cl)cc(Cl)c2)CC1` (centres unmarked) [Compound 117], the inhibition at 30 µM is < 50%.

With `O=C(Nc1ccc2c(c1)C(=O)N(Cc1ccc(C(F)(F)F)cc1)C2=O)OCc1ccccc1` [Compound 38], the inhibition at 30 µM was < 50%.

Turning to `CONC(=O)c1ccc(COc2ccc3c(c2)C/C(=C\c2cc(Cl)cc(Cl)c2)C3=O)cc1` [Compound 127], the inhibition at 30 µM is 50 to 80%.

With `O=C1/C(=C/c2ccc(C(F)(F)F)cc2)Cc2ccc(OCc3ccc(F)c(F)c3)cc21` [Compound 6], the inhibition at 30 µM is < 50%.

As for `O=C(O)c1ccc(CC2CCc3cc(OCc4cc(F)c(F)cc4F)ccc3C2=O)cc1` (centres unmarked) [Compound 44], the inhibition at 30 µM is < 50%.

With `O=C(O)c1ccc(COc2ccc3c(c2)C/C(=C\c2ccc(OCc4cc(F)c(F)cc4F)c(F)c2)C3=O)cc1` [Compound 15], the inhibition at 30 µM was 50 to 80%.

Regarding `O=C(Nc1ccc2c(c1)C/C(=C\c1cccc(C(F)(F)F)c1)C2=O)OCc1ccccc1` [Compound 26], the inhibition at 30 µM was < 50%.

In the case of `O=C(O)c1ccc(COc2ccc3c(c2)C/C(=C\c2cc(Cl)cc(Cl)c2)C3O)cc1` (centres unmarked) [Compound 133], the inhibition at 30 µM was 50 to 80%.

Take `O=C(Nc1ccc(F)c(F)c1)c1ccc2c(c1)C(=O)N(Cc1cccc(C(F)(F)F)c1)C2=O` [Compound 96]: the inhibition at 30 µM is 50 to 80%.

With `O=C(Nc1ccc(CC2CCc3cc(O)ccc3C2=O)cc1)OCc1cc(Cl)cc(Cl)c1` (centres unmarked) [Compound 70], the inhibition at 30 µM was > 80%.

Take `O=C(Nc1ccc(CC2CCc3cc(O)ccc3C2=O)cc1)OCc1cc(F)c(F)cc1F` (centres unmarked) [Compound 71]: the inhibition at 30 µM is 50 to 80%.

As for `O=C(O)c1ccc(COc2ccc3c(c2)C/C(=C\c2cc(Cl)cc(Cl)c2)C3=O)cc1` [Compound 20, (E)-4-(((2-(3,5-dichlorobenzylidene)-1-oxo-2,3-dihydro-1H-inden-5-yl)oxy)methyl)benzoic acid], the inhibition at 30 µM was > 80%.

On to `O=C1/C(=C/c2ccc(OCCOc3ccc(F)cc3F)cc2)CCc2cc(O)ccc21` [Compound 101], for which the inhibition at 30 µM was < 50%.

Take `CS(=O)(=O)N1CCN(C(=O)c2ccc(COc3ccc4c(c3)C/C(=C\c3cc(Cl)cc(Cl)c3)C4=O)cc2)CC1` [Compound 121]: the inhibition at 30 µM was < 50%.

In the case of `O=C(Cc1ccc(F)c(F)c1)Nc1ccc(CC2CCc3cc(O)ccc3C2=O)cc1` (centres unmarked) [Compound 69], the inhibition at 30 µM is < 50%.

In the case of `O=C(O)c1ccc(COc2ccc3c(c2)C/C(=C\c2cc(F)c(F)cc2F)C3=O)cc1` [Compound 21], the inhibition at 30 µM was > 80%.

Turning to `O=C(NO)c1ccc(COc2ccc3c(c2)C/C(=C\c2cc(Cl)cc(Cl)c2)C3=O)cc1` [Compound 128], the inhibition at 30 µM fell in the range of 50 to 80%.

In the case of `O=C(O)c1ccc(COc2ccc3c(c2)C/C(=C\c2ccc(Cl)cc2Cl)C3=O)cc1` [Compound 19], the inhibition at 30 µM was > 80%.

As to `COC(=O)c1ccc(COc2ccc3c(c2)O/C(=C\c2ccc(F)c(F)c2)C3=O)cc1` [Compound 89], the inhibition at 30 µM fell in the range of 50 to 80%.

Take `O=C(NCc1ccc(F)c(F)c1)c1ccc(CC2CCc3cc(O)ccc3C2=O)cc1` (centres unmarked) [Compound 59]: the inhibition at 30 µM was in the range of 50 to 80%.

Regarding `O=C(O)c1ccc(COc2ccc3c(c2)C/C(=C\c2ccc(Cl)c(F)c2)C3=O)cc1` [Compound 13], the inhibition at 30 µM was > 80%.

With `COC(=O)c1ccc(COc2ccc3c(c2)C/C(=C\c2cc(Cl)cc(Cl)c2)C3=O)cc1` [Compound 132], the inhibition at 30 µM was < 50%.

For `O=C(OCc1cc(F)ccc1F)c1ccc(CC2CCc3cc(OCc4cc(F)ccc4F)ccc3C2=O)cc1` (centres unmarked) [Compound 62], the inhibition at 30 µM was > 80%.

Regarding `O=C1/C(=C/c2cccc(C(F)(F)F)c2)CCc2cc(OCc3ccc(F)c(F)c3)ccc21` [Compound 93], the inhibition at 30 µM is 50 to 80%.

As to `CS(=O)(=O)NC(=O)c1ccc(COc2ccc3c(c2)C/C(=C\c2cc(Cl)cc(Cl)c2)C3=O)cc1` [Compound 125], the inhibition at 30 µM is > 80%.

Turning to `CN(Cc1cc(F)c(F)cc1F)C(=O)c1ccc(CC2CCc3cc(O)ccc3C2=O)cc1` (centres unmarked) [Compound 61], the inhibition at 30 µM lay in the range of 50 to 80%.

In the case of `O=C1/C(=C/c2ccc(OCCc3ccc(F)cc3)cc2)CCc2cc(O)ccc21` [Compound 100], the inhibition at 30 µM was < 50%.

As for `O=C(OCc1cc(F)c(F)cc1F)c1ccc(CC2Cc3ccc(O)cc3C2=O)cc1` (centres unmarked) [Compound 34], the inhibition at 30 µM lay in the range of 50 to 80%.

As to `O=C(Nc1ccc(CC2CCc3cc(O)ccc3C2=O)cc1)OCc1ccc(Cl)c(Cl)c1` (centres unmarked) [Compound 68], the inhibition at 30 µM was > 80%.
